How the values were obtained:
human 5-HT2C receptor [1] = molecular target: T1, human 5-HT2C receptor (Homo sapiens, UniProt P28335); experiment: Ca2+ mobilization in HeLa h5-HT2C cells; format: cell-based; conditions: for EC50: Ca2+ mobilization, no unit in the table, nM, read-out: 5-HT2C EC50 (in parentheses) (converted); for Emax: HeLa, read-out: 5-HT2C % Emax; for Selectivity 5-HT2C/2A (functional, in parentheses): from EC50 values, Table 2
T1 construct: expressed in transfected cells; host or cells: HeLa (HeLa-5-HT2C cell line)
T1 sequence (P28335 33-458): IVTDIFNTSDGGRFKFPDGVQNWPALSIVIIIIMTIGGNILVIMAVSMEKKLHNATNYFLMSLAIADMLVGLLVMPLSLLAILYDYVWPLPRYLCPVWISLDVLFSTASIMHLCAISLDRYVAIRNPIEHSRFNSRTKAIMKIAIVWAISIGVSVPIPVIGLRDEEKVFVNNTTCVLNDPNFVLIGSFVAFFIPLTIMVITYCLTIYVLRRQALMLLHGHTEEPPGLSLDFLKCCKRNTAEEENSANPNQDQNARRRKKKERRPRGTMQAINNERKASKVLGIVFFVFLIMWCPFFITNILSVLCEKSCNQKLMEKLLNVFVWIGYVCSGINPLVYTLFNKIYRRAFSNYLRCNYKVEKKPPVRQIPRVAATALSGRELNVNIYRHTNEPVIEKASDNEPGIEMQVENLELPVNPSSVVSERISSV

human 5-HT2A receptor [2] = molecular target: T2, human 5-HT2A receptor (Homo sapiens, UniProt P28223); experiment: Ca2+ mobilization in CHO h5-HT2A cells; format: cell-based; conditions: for EC50: Ca2+ mobilization, no unit in the table, nM, read-out: 5-HT2A EC50 (in parentheses) (converted); for Selectivity 5-HT2A/2C (functional): from EC50 values, Table 2; for Emax: relative efficacy, % of response to 5-HT
T2 construct: expressed in transfected cells; host or cells: CHO (CHO-5-HT2A cell line)

human 5-HT2C receptor [3] = molecular target: T1, human 5-HT2C receptor; experiment: Competition binding to the human 5-HT2C receptor ([3H]mesulergine, HeLa-5-HT2C membranes); conditions: for Selectivity 5-HT2C/2A (binding, in parentheses): from Ki values, Table 1; for Ki: human receptor, [3H]mesulergine displacement, no unit in the table, nM, read-out: 5-HT2C Ki (in parentheses) (converted); for inhibition at 10 µM: values marked *
human 5-HT2B receptor = human 5-HT2B receptor (Homo sapiens, UniProt P41595); experiment: Competition binding to the human 5-HT2B receptor ([3H]LSD, CHO-5-HT2B membranes)
human 5-HT2A receptor [4] = molecular target: T2, human 5-HT2A receptor; experiment: Competition binding to the human 5-HT2A receptor ([3H]ketanserin, CHO-5-HT2A membranes); conditions: for Selectivity 5-HT2A/2C (binding): from Ki values, Table 1; for Ki: human receptor, [3H]ketanserin displacement, no unit in the table, nM, read-out: 5-HT2A Ki (in parentheses) (converted); for inhibition at 10 µM: values marked *

Chain of human 5-HT2B receptor (P41595 whole entry): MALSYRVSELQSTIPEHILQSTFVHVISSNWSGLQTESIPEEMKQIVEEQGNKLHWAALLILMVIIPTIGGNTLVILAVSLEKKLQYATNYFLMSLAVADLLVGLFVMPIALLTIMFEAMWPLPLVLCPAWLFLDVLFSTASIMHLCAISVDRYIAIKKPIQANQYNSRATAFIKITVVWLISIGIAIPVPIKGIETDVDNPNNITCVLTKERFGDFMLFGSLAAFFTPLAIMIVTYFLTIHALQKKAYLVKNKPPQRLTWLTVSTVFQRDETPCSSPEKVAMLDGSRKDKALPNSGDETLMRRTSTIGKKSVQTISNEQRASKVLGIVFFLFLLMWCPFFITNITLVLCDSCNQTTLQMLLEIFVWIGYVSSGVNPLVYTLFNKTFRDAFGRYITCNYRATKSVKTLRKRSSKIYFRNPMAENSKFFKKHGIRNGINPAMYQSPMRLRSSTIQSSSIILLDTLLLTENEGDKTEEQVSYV
T2 sequence (P28223 whole entry): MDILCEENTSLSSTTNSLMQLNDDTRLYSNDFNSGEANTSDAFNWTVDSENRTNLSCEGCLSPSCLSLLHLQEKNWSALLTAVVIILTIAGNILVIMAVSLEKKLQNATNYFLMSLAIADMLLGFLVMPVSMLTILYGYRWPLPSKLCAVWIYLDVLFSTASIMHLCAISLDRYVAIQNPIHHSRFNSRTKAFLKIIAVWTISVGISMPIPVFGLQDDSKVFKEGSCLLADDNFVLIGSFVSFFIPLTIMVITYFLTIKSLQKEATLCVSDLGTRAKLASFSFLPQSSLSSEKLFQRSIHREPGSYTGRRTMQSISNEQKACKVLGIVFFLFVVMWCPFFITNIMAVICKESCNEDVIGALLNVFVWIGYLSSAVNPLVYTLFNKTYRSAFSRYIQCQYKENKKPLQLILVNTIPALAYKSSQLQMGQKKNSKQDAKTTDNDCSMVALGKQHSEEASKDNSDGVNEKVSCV

Row | Compound | EC50 (human 5-HT2C receptor [1]) | Emax (human 5-HT2C receptor [1]) | Selectivity 5-HT2C/2A (functional, in parentheses) (human 5-HT2C receptor [1]) | EC50 (human 5-HT2A receptor [2]) | Selectivity 5-HT2A/2C (functional) (human 5-HT2A receptor [2]) | Emax (human 5-HT2A receptor [2]) | Selectivity 5-HT2C/2A (binding, in parentheses) (human 5-HT2C receptor [3]) | Ki (human 5-HT2C receptor [3]) | Ki (human 5-HT2B receptor) | Selectivity 5-HT2A/2C (binding) (human 5-HT2A receptor [4]) | Ki (human 5-HT2A receptor [4]) | inhibition at 10 µM (human 5-HT2C receptor [3]) | inhibition at 10 µM (human 5-HT2A receptor [4])
1 | c1ccc(CNCCc2c[nH]c3ccccc23)cc1 [Compound 1, N-Benzyl-[2-(1H-indol-3-yl)ethyl]amine] | 50.1 nM | 121 ± 6.58% | 3.24 | 162 nM | 0.31 | 61.6 ± 5.17% | 1.33 | 186 nM | 0.1 µM | 0.75 | 245 nM | – | –
2 | Oc1ccccc1CNCCc1c[nH]c2ccccc12 [Compound 2, N-(2-Hydroxybenzyl)-[2-(1H-indol-3-yl)ethyl]amine] | 33.9 nM | 85.8 ± 2.83% | 5.89 | 200 nM | 0.17 | 94.1 ± 4.59% | 1.37 | 85.1 nM | 0.0676 µM | 0.73 | 115 nM | – | –
3 | Oc1ccc(CNCCc2c[nH]c3ccccc23)cc1 [Compound 12, N-(4-Hydroxybenzyl)-[2-(1H-indol-3-yl)ethyl]amine] | 145 nM | 99.7 ± 2.81% | – | – | – | – | 0.92 | 1000 nM | 0.49 µM | 1.09 | 912 nM | – | –
4 | COc1ccc(CNCCc2c[nH]c3ccccc23)cc1 [Compound 13, N-(4-Methoxybenzyl)-[2-(1H-indol-3-yl)ethyl]amine] | 8.32 nM | 91.4 ± 2.03% | – | 45.7 nM | – | 108 ± 2.78% | – | 355 nM | – | – | 457 nM | – | –
5 | Cc1ccc(CNCCc2c[nH]c3ccccc23)cc1 [Compound 14, N-(4-Methylbenzyl)-[2-(1H-indol-3-yl)ethyl]amine] | 1200 nM | 100 ± 5.36% | – | – | – | – | 1.23 | 331 nM | 0.0741 µM | 0.81 | 417 nM | – | –
6 | O=[N+]([O-])c1ccc(CNCCc2c[nH]c3ccccc23)cc1 [Compound 18, N-(4-Nitrobenzyl)-[2-(1H-indol-3-yl)ethyl]amine] | 525 nM | 92 ± 8.69% | – | – | – | – | 1.85 | 1410 nM | 0.2 µM | 0.54 | 2630 nM | – | –
7 | COc1cccc(CNCCc2c[nH]c3ccccc23)c1OC [Compound 20, N-(2,3-Dimethoxybenzyl)-[2-(1H-indol-3-yl)ethyl]amine] | 3630 nM | 117 ± 9.18% | – | – | – | – | 1.37 | 1120 nM | 0.195 µM | 0.73 | 1510 nM | – | –
8 | Oc1ccc(Br)cc1CNCCc1c[nH]c2ccccc12 [Compound 26, N-(5-Bromo-2-hydroxybenzyl)-[2-(1H-indol-3-yl)ethyl]amine] | 708 nM | 108 ± 2.88% | – | – | – | – | 0.42 | 724 nM | – | 2.39 | 309 nM | – | –
9 | O=[N+]([O-])c1ccc(O)c(CNCCc2c[nH]c3ccccc23)c1 [Compound 30, N-(5-Nitro-2-hydroxybenzyl)-[2-(1H-indol-3-yl)ethyl]amine] | – | – | – | – | – | – | – | – | 0.891 µM | – | – | 31 ± 4% | 8 ± 4%
10 | COc1ccc(CNCCc2c[nH]c3ccccc23)c(OC)c1 [Compound 32, N-(2,4-Dimethoxybenzyl)-[2-(1H-indol-3-yl)ethyl]amine] | 240 nM | 117 ± 4.59% | – | – | – | – | 2.44 | 269 nM | 0.234 µM | 0.41 | 661 nM | – | –
11 | Oc1c(Br)cc(Br)cc1CNCCc1c[nH]c2ccccc12 [Compound 35, N-(3,5-Dibromo-2-hydroxybenzyl)-[2-(1H-indol-3-yl)ethyl]amine] | – | – | – | – | – | – | – | – | 6.03 µM | – | – | 26 ± 4% | 12 ± 4%
12 | NCCc1c[nH]c2ccccc12 [Tryptamine] | 1.17 nM | 108 ± 3.43% | – | – | – | 97.6 ± 2.34% | – | 95.5 nM | 0.11 µM | – | – | – | –

From publication PMC6328172, “5-HT2 receptor binding, functional activity and selectivity in N-benzyltryptamines” (PLoS ONE, 2019)
